Assay [1] can be described thus: Exemplary case: AD patient given daily glibenclamide by monthly depot intramuscular injection, neurological testing. The format is in vivo, human. To be noted: person with AD; 1.0 mg per day via monthly depot intramuscular injection. From the text: The following exemplary descriptions illustrate ways to implement the methods and treatments disclosed herein. […] A diagnosis of AD is made as other causes are ruled out. […] Depot injection is chosen in order to optimize patient compliance.

Assay [2] is described as follows: Exemplary case: type 2 diabetic patient with AD given daily glibenclamide, metformin ceased. Format: in vivo, human. To be noted: 10 mg per day. An excerpt: The following exemplary descriptions illustrate ways to implement the methods and treatments disclosed herein.
A type 2 diabetic […] presents to their family physician with complaints of forgetfulness and increasing confusion. They are being treated with metformin and diet controls for their Type 2 diabetes. The patient is diagnosed with AD upon referral to a geriatrician and upon clinical, laboratory and imaging investigations.

As to `COc1ccc(Cl)cc1C(=O)NCCc1ccc(S(=O)(=O)NC(=O)NC2CCCCC2)cc1` [glibenclamide, 5-chloro-N-[2-[4-(cyclohexylcarbamoylsulfamoyl)phenyl]ethyl]-2-methoxy-benzamide], the “Neurological testing: AD symptoms” value in assay [1] is reported as “stabilization of symptoms”. Besides, in assay [2], the “Blood glucose measurements and HbA1C levels” value was “stable blood glucose measurements and HbA1C levels”; the Episodes of forgetfulness result is given as “episodes of forgetfulness are waning”.
